Experimental data published in patent US20190382850A1, “METHOD FOR IDENTIFYING MITOCHONDRIAL DNA IN EXTRACELLULAR VESICLES AND TREATMENT OF MTDNA-RELATED DISORDERS AND CANCER” (Memorial Sloan-Kettering Cancer Center, priority 2017, published 2019).

Key:
Jak2 = experiment: EV mtDNA copy number from CAFs in hypoxia reoxygenation ± Jak2 inhibitor; format: cell-based; details: 500 nM every 3 days, FIG. 14
Description: FIG. 14 reports that hypoxia reoxygenation culture condition increases EV mtDNA copy number in a Jak2-Stat(s) dependent manner. 10-cm plates with 10^6 cells (CAFs) were cultured in 1% O2 (hypoxia) for 4 days and 3 days in normal culture conditions (20% O2, hyperoxia) in presence/absence of Jak2 inhibitor (500 nM every 3 days). Conditioned media for EV isolation and DNA level from EVs was analyzed. As control, EVs from 20% O2, hyperoxia were also collected and analyzed. MtDNA as copy number is shown as bar graphs, mean±error bars of ND1 level obtained from EV-DNA (10 ng total DNA).

HTS cells = experiment: Proliferation in presence of OXPHOS inhibitors ± HT; format: cell-based, human; details: with and without fulvestrant
Description: FIG. 8 reports that OXPHOS inhibition abrogates HTR disease. (Panel a), Proliferation potential as determined by in vitro cell growth (CalceinAM) in luminal (ER+) and triple negative cancer cell lines cultured in media with increasing concentration of glucose. (Panel b), Oxygen consumption rates (OCR)±oligomycin (200 nM)/rotenone (100 nM) in MCF7 and MDA-MB-231 cells as determined by seahorse technology. (Panel c), Desmin immunohistochemical images of CAFs in HTS/HTR-derived tissues (scale bar 25 μm). (Panel d), Schematic analysis of the generation of metastatic HTR disease in mice. […] Metastatic burden was analyzed by BLI and at necropsy by histological examination (H&E). (Panel e), Proliferation potential in presence of oligomycin (100 nM) and ±HT as determined by in vitro BLI in metastatic cells from HTS and HTR cells FACS purified from xenografts (FIG. 2a). […] (Panel f), mtDNA/nDNA level in circulating EVs from HTR xenografts as determined by copy number (GAPDH, ND1: qPCR Fold change). […]
For immunoblotting assays, cells were lysed in buffer (50 mmol/L Tris at pH 7.5, 150 mmol/L NaCl, 5 μg/mL aprotinin, pepstatin, 1% NP-40, lmmol/L EDTA, 0.25% deoxycholate, and protease inhibitor cocktail tablet, Sigma). […] The enrichment of CAFs in xenografts was determined by desmin immunohistochemistry (IHC) in tumor-derived sections. […]

mu-mtDNAhi HTR cells = experiment: as above; format: cell-based, human; details: with and without fulvestrant; atovaquone 1 μM, rotenone 100 nM, oligomycin 200 nM; FIG. 2f, 8e
Description: (Panel a) Representative tumor growth kinetics (BLI) of GFP+/Luciferase+MCF7 xenografts (n=10) treated with weekly fulvestrant once mammary fat pad tumors were established (after 3 months) which led to a period (4 months) of disease stability on HT (HTS) followed by exponential growth on HT (HTR). Representative H&E images of tumors and primary cultures from unsorted as well as FACS purified cancer cells (GFP+/Epcam+) and murine CAFs (GFP−/Epcam). Scale bar 20 μm. (Panel b) OXPHOS potential in tumor-derived cancer cells (panel a) was measured±HT (fulvestrant, 10 μM) by Seahorse. […] (Panel d) Percentage of metastatic lesions isolated by FACS from tumor-bearing mice (n=8/group) expressing murine mtDNA as determined by ND1 qPCR (2 ng of total DNA). Oxygen consumption rates (OCR) in murine-mtDNApos and ctrl HTR cells determined by Seahorse. (Panel e) Murine mitochondrial RNA expression (12 genes: ND1, ND2, COX2, ATP8, ATP6, COX3, ND3, ND4L, ND4, ND5, ND6, CytB) as fold change (logioscale) determined by qRT-PCR in HTR and HTS cells (panel a). […]
FIG. 8 reports that OXPHOS inhibition abrogates HTR disease. (Panel a), Proliferation potential as determined by in vitro cell growth (CalceinAM) in luminal (ER+) and triple negative cancer cell lines cultured in media with increasing concentration of glucose. […]

MCF7 model metastases = experiment: Metastatic assay: mastectomy followed by adjuvant HT in MCF7 tumor-bearing mice; format: in vivo; details: adjuvant tamoxifen after mastectomy, followed ~9 months
Description: FIG. 8 reports that OXPHOS inhibition abrogates HTR disease. (Panel a), Proliferation potential as determined by in vitro cell growth (CalceinAM) in luminal (ER+) and triple negative cancer cell lines cultured in media with increasing concentration of glucose. (Panel b), Oxygen consumption rates (OCR)±oligomycin (200 nM)/rotenone (100 nM) in MCF7 and MDA-MB-231 cells as determined by seahorse technology. (Panel c), Desmin immunohistochemical images of CAFs in HTS/HTR-derived tissues (scale bar 25 μm). (Panel d), Schematic analysis of the generation of metastatic HTR disease in mice. […] Metastatic burden was analyzed by BLI and at necropsy by histological examination (H&E). (Panel e), Proliferation potential in presence of oligomycin (100 nM) and ±HT as determined by in vitro BLI in metastatic cells from HTS and HTR cells FACS purified from xenografts (FIG. 2a). Error bars, mean±s.d. of BLI from n=3 samples. (Panel f), mtDNA/nDNA level in circulating EVs from HTR xenografts as determined by copy number (GAPDH, ND1: qPCR Fold change). Data are reported as error bars, mean±s.d. of n=3 independent experiments (a, e-g). *P<0.05 (Student's t-test) and GLM anova after multiple comparisons (a).
All cancer cell lines were engineered to express a GFP positive luciferase expression vector for in vitro and in vivo imaging studies. […] EV-number was determined by Nanosight. […]

Compound: Cc1cc(Nc2nc(N[C@@H](C)c3ncc(F)cn3)ncc2Cl)[nH]n1 [AZD 1490]
- generation of mtDNA high EVs (Jak2): hampering the generation of mtDNA high EVs

Compound: CC[C@H]1/C=C/C=C/C[C@@H](C)[C@H](O)[C@@](C)(O)C(=O)[C@@H](C)[C@H](O)[C@@H](C)C(=O)[C@@H](C)[C@H](O)[C@@H](C)/C=C/C(=O)O[C@@H]2[C@H](C)[C@H](CC1)O[C@]1(CC[C@H](C)[C@H](C[C@@H](C)O)O1)[C@H]2C [oligomycin]
- combined effect with HT on cell proliferation and/or cell death of HTS cells (HTS cells): no synergistic effect
- sensitivity of HTR cells to HT (proliferation) (mu-mtDNAhi HTR cells): re-sensitized HTR cells to HT

Compound: C=C(C)[C@H]1Cc2c(ccc3c2O[C@@H]2COc4cc(OC)c(OC)cc4[C@@H]2C3=O)O1 [rotenone]
- combined effect with HT on cell proliferation and/or cell death of HTS cells (HTS cells): no synergistic effect
- sensitivity of HTR cells to HT (proliferation) (mu-mtDNAhi HTR cells): re-sensitized HTR cells to HT

Compound: CC/C(=C(\c1ccccc1)c1ccc(OCCN(C)C)cc1)c1ccccc1 [tamoxifen]
- HT treated mice with no evidence of disease (MCF7 model metastases): 90%
- HT treated mice with wide-spread (>20) HTR metastases involving multiple organs (MCF7 model metastases): 10%
